Drawing on patent US20250228239A1, “MOLECULES HAVING PESTICIDAL UTILITY, AND INTERMEDIATES, COMPOSITIONS, AND PROCESSES, RELATED THERETO” (priority 2024, published 2025), this text covers pest or weed control for 19 compounds.

Structures are written as SMILES. Read-outs that look alike come from different tables or passages of the source.

The subject of assay [1] is Beet Armyworm (Spodoptera exigua, LAPHEG). Description: Bioassays on Beet Armyworm (BAW), 128-well diet tray assay. It counts as in vivo. As to conditions: Spodoptera exigua. As to the method:
(§1) Certain molecules disclosed in this document were tested against BAW and CL using procedures described in the following examples. In the reporting of the results, the “BAW & CL Rating Table” was used (See Table Section).
Bioassays on BAW were conducted using a 128-well diet tray assay. One to five second instar BAW larvae were placed in each well (3 mL) of the diet tray that had been previously filled with 1 mL of artificial diet to which 50 μg/cm^2 of the test molecule (dissolved in 50 μL of 90:10 acetone-water mixture) had been applied (to each of eight wells) and then allowed to dry. Trays were covered with a clear self-adhesive cover, vented to allow gas exchange, and held at 25° C., 14:10 light-dark for five to seven days. Percent mortality was recorded for the larvae in each well; activity in the eight wells was then averaged. The results are indicated in the table entitled “Table ABC: Biological Results” (See Table Section).

Assay [2] concerns Cabbage Looper (Trichoplusia ni, TRIPNI). Description: Bioassays on Cabbage Looper (CL), 128-well diet tray assay. It is filed as in vivo. Particulars: Trichoplusia ni. As for the experimental part: as §1
Bioassays on CL were conducted using a 128-well diet tray assay. One to five second instar CL larvae were placed in each well (3 mL) of the diet tray that had been previously filled with 1 mL of artificial diet to which 50 μg/cm^2 of the test molecule (dissolved in 50 μL of 90:10 acetone-water mixture) had been applied (to each of eight wells) and then allowed to dry. Trays were covered with a clear self-adhesive cover, vented to allow gas exchange, and held at 25° C., 14:10 light-dark for five to seven days. Percent mortality was recorded for the larvae in each well; activity in the eight wells was then averaged. The results are indicated in the table entitled “Table ABC: Biological Results” (See Table Section).

Setting [3] is: Beet Armyworm, Table ABC / ABC-DP rating, read-out: BAW rating.
Setting [4] is: Cabbage Looper, Table ABC / ABC-DP rating, read-out: CL rating.
The mark [5] stands for this setting: Beet Armyworm, rating class, read-out: BAW.
Setting [6] is: Cabbage Looper, rating class, read-out: CL.
Where [7] appears, read: Table ABC: Biological Results, species BAW, read-out: BAW.
Setting [8] is: Table ABC: Biological Results, species CL, read-out: CL.

Regarding `O=C(CC(F)(F)F)NNC(=O)c1cc(NC(=O)[C@H]2[C@H](c3cc(Cl)cc(Cl)c3)C2(Cl)Cl)ccc1Cl` (relative stereo) [F2516, trans-2,2-Dichloro-N-(4-chloro-3-(2-(3,3,3-trifluoropropanoyl)hydrazine-1-carbonyl)phenyl)-3-(3,5-dichlorophenyl)cyclopropane-1-carboxamide], the pest or weed control at 50 µg/cm2 in assay [1] (setting [3]) and in assay [2] (setting [4]) was 50 to 100% in each case.
As for `CCOC(=O)Nc1c(F)ccc(NC(=O)c2cc(NC(=O)[C@H]3[C@H](c4ccc(Cl)c(Cl)c4)C3(Cl)Cl)ccc2Cl)c1F` [F1476, Ethyl (3-(2-chloro-5-((1R,3R)-2,2-dichloro-3-(3,4-dichlorophenyl)cyclopropane-1-carboxamido)benzamido)-2,6-difluorophenyl)carbamate], the pest or weed control at 50 µg/cm2 in assay [1] (setting [5]) and in assay [2] (setting [6]) was 50 to 100% each time.
On to `CC(=O)Nc1c(C)ccc(NC(=O)c2cc(NC(=O)[C@H]3[C@H](c4cc(Cl)cc(Cl)c4)C3(Cl)Cl)ccc2Cl)c1C` (relative stereo) [F1128, trans-N-(3-Acetamido-2,4-dimethylphenyl)-2-chloro-5-(2,2-dichloro-3-(3,5-dichlorophenyl)cyclopropane-1-carboxamido)benzamide], for which the pest or weed control at 50 µg/cm2 in assay [1] (setting [7]) and in assay [2] (setting [8]) was 50 to 100% in each case.
As to `O=C(NCC(F)(F)F)c1cc(NC(=O)[C@H]2[C@H](c3ccc(F)c(F)c3)C2(Cl)Cl)ccc1Cl` [F2099, 2-Chloro-5-((1R,3R)-2,2-dichloro-3-(3,4-difluorophenyl)cyclopropane-1-carboxamido)-N-(2,2,2-trifluoroethyl)benzamide], the pest or weed control at 50 µg/cm2 in assay [1] (setting [3]) and in assay [2] (setting [4]) was 50 to 100% each time.
Regarding `O=C(Nc1c(F)ccc([N+](=O)[O-])c1F)c1cc(NC(=O)[C@H]2[C@H](c3cc(Cl)c(Cl)c(Cl)c3)C2(Cl)Cl)cc(F)c1F` [F1765, 5-((1R,3R)-2,2-Dichloro-3-(3,4,5-trichlorophenyl)cyclopropane-1-carboxamido)-N-(2,6-difluoro-3-nitrophenyl)-2,3-difluorobenzamide], the pest or weed control at 50 µg/cm2 in assay [1] (setting [5]) and in assay [2] (setting [6]) was 50 to 100% each time.
`O=C(Nc1ccc(F)c(NC(=O)C2(C(F)(F)F)CC2)c1F)c1cc(NC(=O)[C@H]2[C@H](c3ccc(Cl)c(Cl)c3)C2(Cl)Cl)ccc1Cl` [F1662, 2-Chloro-5-((1R,3R)-2,2-dichloro-3-(3,4-dichlorophenyl)cyclopropane-1-carboxamido)-N-(2,4-difluoro-3-(1-(trifluoromethyl)cyclopropane-1-carboxamido)phenyl)benzamide]: the pest or weed control at 50 µg/cm2 in assay [1] (setting [5]) and in assay [2] (setting [6]) was 50 to 100% each time.
On to `O=C(Nc1ccc(Cl)c(NC(=O)C(F)(F)F)c1)c1cc(NC(=O)[C@H]2[C@H](c3ccc(F)c(Cl)c3)C2(Cl)Cl)ccc1Cl` (relative stereo) [F1366, trans-2-Chloro-N-(4-chloro-3-(2,2,2-trifluoroacetamido)phenyl)-5-(2,2-dichloro-3-(3-chloro-4-fluorophenyl)cyclopropane-1-carboxamido)benzamide], for which the pest or weed control at 50 µg/cm2 in assay [1] (setting [7]) and in assay [2] (setting [8]) was 50 to 100% each time.
Take `Nc1c(F)ccc(NC(=O)c2cc(NC(=O)[C@H]3[C@H](c4ccc(F)c(C(F)(F)F)c4)C3(Cl)Cl)cc(F)c2Cl)c1F` [F1285, N-(3-Amino-2,4-difluorophenyl)-2-chloro-5-((1R,3R)-2,2-dichloro-3-(4-fluoro-3-(trifluoromethyl)phenyl)cyclopropane-1-carboxamido)-3-fluorobenzamide]: the pest or weed control at 50 µg/cm2 in assay [1] (setting [7]) and in assay [2] (setting [8]) was 50 to 100% in each case.
`CCCNc1c(F)ccc(NC(=O)c2cc(NC(=O)[C@H]3[C@H](c4ccc(F)c(C(F)(F)F)c4)C3(Cl)Cl)ccc2Cl)c1F` [F1838, 2-Chloro-5-((1R,3R)-2,2-dichloro-3-(4-fluoro-3-(trifluoromethyl)phenyl)cyclopropane-1-carboxamido)-N-(2,4-difluoro-3-(propylamino)phenyl)benzamide]: the pest or weed control at 50 µg/cm2 in assay [1] (setting [3]) and in assay [2] (setting [4]) was 50 to 100% in each case.
Consider `O=C(Nc1cc(NC(=O)C(F)(F)C(F)F)c(F)cc1F)c1cc(NC(=O)[C@H]2[C@H](c3ccc(Cl)c(Cl)c3)C2(Cl)Cl)ccc1Cl` [F1565, 2-Chloro-5-((1R,3R)-2,2-dichloro-3-(3,4-dichlorophenyl)cyclopropane-1-carboxamido)-N-(2,4-difluoro-5-(2,2,3,3-tetrafluoropropanamido)phenyl)benzamide], for which the pest or weed control at 50 µg/cm2 in assay [1] (setting [5]) and in assay [2] (setting [6]) was 50 to 100% each time.
As to `O=C(Nc1ccc(F)cc1F)c1cc(NC(=O)[C@@H]2[C@@H](c3ccc(F)c(F)c3)C2(Cl)Cl)ccc1Cl` [F1751, 2-Chloro-5-((1S,3S)-2,2-dichloro-3-(3,4-difluorophenyl)cyclopropane-1-carboxamido)-N-(2,4-difluorophenyl)benzamide], the pest or weed control at 50 µg/cm2 in assay [1] (setting [5]) and in assay [2] (setting [6]) was 50 to 100% each time.
With `Cc1cc(NC(=O)c2cc(NC(=O)[C@H]3[C@H](c4cc(Cl)cc(Cl)c4)C3(Cl)Cl)ccc2Cl)c(C)cc1N` (relative stereo) [F1257, trans-N-(4-Amino-2,5-dimethylphenyl)-2-chloro-5-(2,2-dichloro-3-(3,5-dichlorophenyl)cyclopropane-1-carboxamido)benzamide], the pest or weed control at 50 µg/cm2 in assay [1] (setting [7]) and in assay [2] (setting [8]) was 50 to 100% throughout.
As for `O=C(Nc1ccc(F)c(NC(=O)C(F)F)c1F)c1cc(NC(=O)[C@H]2[C@H](c3cc(Cl)cc(Cl)c3)C2(Cl)Cl)cc(F)c1Cl` [F1333, 2-Chloro-5-((1R,3R)-2,2-dichloro-3-(3,5-dichlorophenyl)cyclopropane-1-carboxamido)-N-(3-(2,2-difluoroacetamido)-2,4-difluorophenyl)-3-fluorobenzamide], the pest or weed control at 50 µg/cm2 in assay [1] (setting [7]) and in assay [2] (setting [8]) was 50 to 100% each time.
For `COC(=O)C(=O)Nc1c(F)ccc(NC(=O)c2cc(NC(=O)[C@H]3[C@H](c4ccc(F)c(C(F)(F)F)c4)C3(Cl)Cl)ccc2Cl)c1F` [F1753, Methyl 2-((3-(2-chloro-5-((1R,3R)-2,2-dichloro-3-(4-fluoro-3-(trifluoromethyl)phenyl)cyclopropane-1-carboxamido)benzamido)-2,6-difluorophenyl)amino)-2-oxoacetate], the pest or weed control at 50 µg/cm2 in assay [1] (setting [5]) and in assay [2] (setting [6]) was 50 to 100% in each case.
For the compound `O=C(Nc1ccc(F)c(NC(=O)C(F)(F)C(F)F)c1F)c1cc(NC(=O)[C@H]2[C@H](c3cc(Cl)c(Cl)c(Cl)c3)C2(Cl)Cl)ccc1Cl` [F1567, 2-Chloro-5-((1R,3R)-2,2-dichloro-3-(3,4,5-trichlorophenyl)cyclopropane-1-carboxamido)-N-(2,4-difluoro-3-(2,2,3,3-tetrafluoropropanamido)phenyl)benzamide], the pest or weed control at 50 µg/cm2 in assay [1] (setting [5]) and in assay [2] (setting [6]) was 50 to 100% throughout.
With `N#CCC(=O)Nc1c(F)ccc(NC(=O)c2cc(NC(=O)[C@H]3[C@H](c4cc(Cl)c(Cl)c(Cl)c4)C3(Cl)Cl)ccc2Cl)c1F` [F1650, 2-Chloro-N-(3-(2-cyanoacetamido)-2,4-difluorophenyl)-5-((1R,3R)-2,2-dichloro-3-(3,4,5-trichlorophenyl)cyclopropane-1-carboxamido)benzamide], the pest or weed control at 50 µg/cm2 in assay [1] (setting [5]) and in assay [2] (setting [6]) was 50 to 100% throughout.
Regarding `Nc1ccc(F)c(NC(=O)c2cc(NC(=O)[C@H]3[C@H](c4cc(Cl)cc(Cl)c4)C3(Cl)Cl)cc(F)c2Cl)c1F` [F1336, N-(3-Amino-2,6-difluorophenyl)-2-chloro-5-((1R,3R)-2,2-dichloro-3-(3,5-dichlorophenyl)cyclopropane-1-carboxamido)-3-fluorobenzamide], the pest or weed control at 50 µg/cm2 in assay [1] (setting [7]) and in assay [2] (setting [8]) was 50 to 100% throughout.
For `Cc1cc(NC(=O)[C@H]2[C@H](c3ccc(Cl)c(Cl)c3)C2(Cl)Cl)cc(C(=O)Nc2ccc(F)c(NC(=O)C(F)(F)F)c2F)c1Cl` [F1485, 2-Chloro-5-((1R,3R)-2,2-dichloro-3-(3,4-dichlorophenyl)cyclopropane-1-carboxamido)-N-(2,4-difluoro-3-(2,2,2-trifluoroacetamido)phenyl)-3-methylbenzamide], the pest or weed control at 50 µg/cm2 in assay [1] (setting [5]) and in assay [2] (setting [6]) was 50 to 100% each time.
`O=C(Nc1ccccc1)c1cc(NC(=O)[C@H]2[C@H](c3ccc(F)c(Cl)c3)C2(Cl)Cl)cc(Cl)c1F` (relative stereo) [F1194, trans-3-Chloro-5-(2,2-dichloro-3-(3-chloro-4-fluorophenyl)cyclopropane-1-carboxamido)-2-fluoro-N-phenylbenzamide]: the pest or weed control at 50 µg/cm2 in assay [1] (setting [7]) and in assay [2] (setting [8]) was 50 to 100% in each case.
